Laboratory results reported in patent publication US20070179113A1, “GM-CSF gene therapy for Crohn's disease using an improved regulated expression system” (Schering Aktiengesellachaft, priority 2005, published 2007).

Columns and labels:
IP-10 = IP-10 plasma level after bolus mIFN-β protein (ELISA); assay type: in vivo, C57BL/6 mice
Description: (§1) C57BL/6 mice were administered 15, 150, or 500 ng of purified recombinant mIFN-β protein (specific activity=2.0×10^8 units/mg) by either i.v. (via tail vein) or i.m. injection (n=3 mice per group). The mice were bled at 2, 4, 6, 12, 24, and 48 hours post-injection, and the plasma levels of IP-10 and JE were measured by ELISA (R&D Systems).

Mx1 RNA = Mx1 RNA induction in PBMCs after bolus injection of mIFN-β protein; assay type: in vivo, C57BL/6 mice
Description: FIG. 6 illustrates Mx1 RNA induction following i.v. (A) or i.m. injection (B) of mIFN-β protein. C57BL/6 mice were administered 15, 150, or 500 ng of purified recombinant mIFN-β protein (specific activity-2.0×10^8 units/mg) by either i.v. (via tail vein) or i.m. injection (n=3 mice per group). At the specified time points post-injection mice were bled, and RNA was isolated from PBMCs. Mx1 RNA was measured by quantitative RT-PCR. The fold increase in Mx1 RNA is expressed relative to GAPDH values measured in the same samples. The controls include naive mice (N), and mice injected with the vehicle buffer only followed by Mx1 analysis at 2 hours (V2 h) or 4 h (V4 h) post-injection. Each column represents the mean value +/− standard deviation.
A quantitative PCR/RT-PCR assay was developed to quantitate the levels of Mx1 mRNA in murine PBMC's. Specifically, peripheral blood mononuclear cells (PBMCs) were isolated from mice treated with either mIFN-β protein or following gene-based delivery of the mIFN-β gene. Blood samples obtained from treated mice were centrifuged on a ficoll cushion for 25 minutes at 2,000 rpm. Purified PBMCs were pelleted and RNA for the Mx1 assay was purified using the “RNAeasy” mini extraction kit from Qiagen. The RNA was stored in H2O at −80° C. Mx1 RT-PCR was performed using TaqMan® chemistry and analysis was done on the Applied Biosystems (ABI) PRISM® 7700 Sequence Detection instrument. For reverse transcription of the RNA and amplification of cDNA, the “One-step TaqMan® RNA” kit from ABI was used. RNA was reverse transcribed for 30 minutes at 48° C. and the amplification was done in 40 cycles with a denaturation step at 95° C. for 30 seconds, and an annealing/elongation step at 60° C. for 1 minute. The samples were analyzed with an Mx1-specific probe/primer combination. Mx1 expression was normalized to GAPDH expression measured in parallel using a standard assay from ABI.
B. Bolus Injection of mIFN-β Protein Induces Transient Biomarker Response In Vivo: The biomarker response after bolus injection of purified recombinant mIFN-β was measured in these studies. […] The highest Mx1 expression levels were measured 2 hours after injection. […] At the 500 ng dose there was a diminished level of Mx1 RNA induction. This saturating effect has been observed in other studies in which high IFN-β levels lead to an apparent down-regulation of the bioresponse, perhaps due to down regulation of the IFN type I receptor (see e.g., Mager, D E and Jusko, W J (2002) Pharm Res 19:1537-43). Mx1 RNA expression in the i.v. injected mice also peaked at approximately 2 hours post-injection and dropped rapidly thereafter.
This is the first time that the expression of Mx1 RNA has been used as a biomarker to follow the activity of mIFN-β in mice. […] However, the upregulation is short term and rapidly drops from high expression levels to background within 12-24 hours.

acute EAE in SJL mice = assay: Mouse acute EAE model, gene-based delivery of mIFN-β; assay type: in vivo; conditions: 100,000 Units s.c. every other day
JE = JE plasma level after bolus mIFN-β protein (ELISA); assay type: in vivo, C57BL/6 mice
Description: as §1

mIFN-β: purified recombinant murine interferon-beta protein expressed in 293E cells
time by which plasma IP-10 dropped to background (IP-10; each of three doses): ≤ 24 h | increase of IP-10 levels (IP-10; high dose delivered i.v.): 3000 fold | time of strong induction of IP-10 after administration (IP-10; i.v. or i.m.): 2 h | induction of Mx1 RNA expression relative to vehicle injected mice (Mx1 RNA; 15, 150 or 500 ng, i.v. or i.m.): 25- to 50 fold | time within which Mx1 upregulation drops to background (Mx1 RNA; bolus protein): 12 to 24 h | time beyond which no Mx1 RNA levels above background were detected (Mx1 RNA; i.m.): ≤ 12 h | dose giving the highest Mx1 induction (Mx1 RNA; i.v.): 150 ng | time of peak Mx1 RNA expression post-injection (Mx1 RNA; i.v.): approximately 2 hours | time of highest Mx1 expression levels after injection (Mx1 RNA; i.v. or i.m.): 2 h | clinical scores compared to vehicle control (acute EAE in SJL mice): significantly decreased clinical scores | time by which plasma JE dropped to background (JE; each of three doses): ≤ 24 h | time of strong induction of JE after administration (JE; i.v. or i.m.): 2 h
